Patent US20260022142A1, “MACROCYCLIC IMMUNOMODULATORS” (Bristol-Myers Squibb Company, priority 2022, published 2026)
Bridge positions count the residues as written; N and C are the ends. Square brackets hold non-standard residues; d marks the D form. Peptide text beside a SMILES is read from it. * marks the point of attachment. Bip = N[C@@H](Cc1ccc(-c2ccccc2)cc1)C(=O)O; Phe(3-Me) = Cc1cccc(C[C@H](N)C(=O)O)c1; Cha = N[C@@H](CC1CCCCC1)C(=O)O; Cit = NC(=O)NCCC[C@H](N)C(=O)O; Carboxymethyl = O=C(O)C*; Orn = NCCC[C@H](N)C(=O)O; dNMeA = CN[C@H](C)C(=O)O; Aun = NCCCCCCCCCCC(=O)O; Dab = NCC[C@H](N)C(=O)O; Dap = NC[C@H](N)C(=O)O

Target: T1, PD-1/PD-L1 interaction (PE-labeled human PD-L1-Ig binding to Jurkat cell line over-expressing human PD-1) (Homo sapiens, UniProt Q15116)
T1 construct: expressed in transfected cells; host or cells: Jurkat
T1 sequence (Q15116 25-288): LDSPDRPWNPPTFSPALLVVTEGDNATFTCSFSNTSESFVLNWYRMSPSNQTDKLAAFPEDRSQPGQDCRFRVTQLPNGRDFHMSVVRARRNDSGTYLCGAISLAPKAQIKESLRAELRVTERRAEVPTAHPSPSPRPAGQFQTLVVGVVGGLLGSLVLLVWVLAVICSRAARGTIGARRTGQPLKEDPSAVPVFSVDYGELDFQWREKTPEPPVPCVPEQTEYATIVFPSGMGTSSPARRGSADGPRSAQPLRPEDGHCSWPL
Experiment: Jurkat-PD-1 Cell Binding High-Content Screening Assay (CBA)
Assay type: cell-based
Conditions: Jurkat cell line over-expressing human PD-1; PE-labeled PD-L1-Ig 20 nM final; read-out: Jurkat hPD1-PDL1 IC50
Summary of the method: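 Read-out is high-content imaging of cell-bound phycoerythrin-tagged PD-L1-Ig on fixed, Hoechst-counterstained Jurkat cells that over-express human PD-1. Compound exposure lasts 2 h at 37° C before the labeled ligand (20 nM final) is added for a further hour.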

SMILES | IC50 [nM]
CC(C)C[C@H]1NC(=O)[C@H](CCCN)NC(=O)[C@H](C(C)C)NC(=O)[C@H](Cc2ccc(-c3ccccc3)cc2)NC(=O)[C@H](C(C)C)NC(=O)[C@H](Cc2c[nH]c3ccccc23)NC(=O)[C@H](CC(=O)O)NC(=O)[C@H](Cc2ccc(OCC(=O)O)cc2)NC(=O)[C@H](CN)NC(=O)CSC[C@@H](C(=O)N[C@@H](CCCCN)C(=O)NCCCCCCCCCCC(=O)O)NC(=O)[C@H](CCCN)NC(=O)[C@H](C(C)C)NC(=O)[C@H](CC2CCCCC2)NC(=O)[C@H](Cc2c[nH]cn2)NC1=O [Compound 2804] ({CH2CO}-[Dap]Y(Carboxymethyl)DWV[Bip]V[Orn][dL]H[Cha]V[Orn]CK[Aun]-OH; thioether N-14) | 51
Cc1cccc(C[C@@H]2NC(=O)[C@H](CC(=O)O)NC(=O)[C@H](Cc3ccc(OCC(=O)O)cc3)NC(=O)[C@H](CCCNC(=N)N)NC(=O)CSC[C@@H](C(=O)N[C@@H](CCCCN)C(=O)NCCCCCCCCCCC(=O)O)NC(=O)[C@H](CCCN)NC(=O)[C@H](C(C)C)NC(=O)[C@H](CC3CCCCC3)NC(=O)[C@H](CCN)NC(=O)[C@@H](CC(C)C)NC(=O)[C@H](CCN)NC(=O)[C@H](CCCNC(N)=O)NC(=O)[C@H](Cc3ccc(-c4ccccc4)cc3)NC(=O)[C@H](C(C)C)NC2=O)c1 [Compound 2805] ({CH2CO}-RY(Carboxymethyl)D[Phe(3-Me)]V[Bip][Cit][Dab][dL][Dab][Cha]V[Orn]CK[Aun]-OH; thioether N-14) | 9.9
Cc1cccc(C[C@@H]2NC(=O)[C@H](CC(=O)O)NC(=O)[C@H](Cc3ccc(OCC(=O)O)cc3)NC(=O)[C@H](CN)NC(=O)CSC[C@@H](C(=O)N[C@H](CO)C(=O)N[C@@H](CCC(=O)O)C(=O)NCCCCCCCCCCC(=O)O)NC(=O)[C@H]([C@@H](C)O)NC(=O)[C@H](C(C)C)NC(=O)[C@H](CC3CCCCC3)NC(=O)[C@H](CCN)NC(=O)[C@@H](CC(C)C)NC(=O)[C@H](CCCN)NC(=O)[C@H](CCCNC(N)=O)NC(=O)[C@H](Cc3ccc(-c4ccccc4)cc3)NC(=O)[C@H](C(C)C)NC2=O)c1 [Compound 2807] ({CH2CO}-[Dap]Y(Carboxymethyl)D[Phe(3-Me)]V[Bip][Cit][Orn][dL][Dab][Cha]VTC[dS]E[Aun]-OH; thioether N-14) | 16.5

Continued, values first:

IC50 [nM] | SMILES
73.9 | Cc1cccc(C[C@@H]2NC(=O)[C@H](CC(=O)O)NC(=O)[C@H](Cc3ccc(O)cc3)NC(=O)[C@H](CC(N)=O)NC(=O)CSC[C@@H](C(=O)N[C@@H](CCCCN)C(=O)NCCCCCCCCCCC(=O)O)NC(=O)[C@H](CCCN)NC(=O)[C@H](C(C)C)NC(=O)[C@H](CC(C)C)NC(=O)[C@H](CCN)NC(=O)[C@@H](CC(C)C)NC(=O)[C@H](CCCN)NC(=O)[C@H](CCCNC(N)=O)NC(=O)[C@H](Cc3ccc(-c4ccccc4)cc3)NC(=O)[C@H](C(C)C)NC2=O)c1 [Compound 2803] ({CH2CO}-NYD[Phe(3-Me)]V[Bip][Cit][Orn][dL][Dab]LV[Orn]CK[Aun]-OH; thioether N-14)
180 | Cc1cccc(C[C@@H]2NC(=O)[C@H](CC(=O)O)NC(=O)[C@H](Cc3ccc(OCC(=O)O)cc3)NC(=O)[C@H](CN)NC(=O)CSC[C@@H](C(=O)N(C)[C@H](C)C(=O)N[C@@H](CCC(=O)O)C(=O)NCCCCCCCCCCC(=O)O)NC(=O)[C@H]([C@@H](C)O)NC(=O)[C@H](C(C)C)NC(=O)[C@H](CC3CCCCC3)NC(=O)[C@H](CCN)NC(=O)[C@@H](CC(C)C)NC(=O)[C@H](CCCN)NC(=O)[C@H](CCCNC(N)=O)NC(=O)[C@H](Cc3ccc(-c4ccccc4)cc3)NC(=O)[C@H](C(C)C)NC2=O)c1 [Compound 2809] ({CH2CO}-[Dap]Y(Carboxymethyl)D[Phe(3-Me)]V[Bip][Cit][Orn][dL][Dab][Cha]VTC[dNMeA]E[Aun]-OH; thioether N-14)
